Results taken from the supplement of paper PMC10307832.

Tests used:
Experiment in all cases: relative viability (nuclei count vs DMSO), 5 days (fraction); higher = more cells survive
[1] = compound: Cn1c(=O)n(-c2ccc(C(C)(C)C#N)cc2)c2c3cc(-c4cnc5ccccc5c4)ccc3ncc21 [Dactolisib] + CS(=O)(=O)N1CCN(Cc2cc3nc(-c4cccc5[nH]ncc45)nc(N4CCOCC4)c3s2)CC1 [Pictilisib] (partner 1 µM)
In short: (§1)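 One day after seeding in 1536-well plates, lung cancer cell lines were dosed by pin tool. Dosing was either single-drug or a fixed anchor-drug dose plus five library-drug doses (not always all listed) in √10 steps. After 5 days, nuclei were stained in one fix-and-stain step and counted on 4× images, and relative viability is the nuclei count of treated wells over that of vehicle wells, given as the median of duplicate plates.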

[2] = compound: Cn1c(=O)n(-c2ccc(C(C)(C)C#N)cc2)c2c3cc(-c4cnc5ccccc5c4)ccc3ncc21 [Dactolisib] + COc1cccc2cc(-c3nc([C@H]4CC[C@H](C(=O)O)CC4)n4ncnc(N)c34)[nH]c12 [OSI-027] (partner 0.5 µM)
In short: as §1

[3] = compound: C1CCC(CC1)N(CCNCCC2=C3C(=C(C=C2)O)NC(=O)CO3)C(=O)CCNCCC4=CC(=C(C=C4)Cl)Cl [AZ505] + CC(=O)Nc1cccc(-n2c(=O)n(C3CC3)c(=O)c3c(Nc4ccc(I)cc4F)n(C)c(=O)c(C)c32)c1 [Trametinib] (partner 0.02 µM)
In short: as §1

[4] = compound: C1CCC(CC1)N(CCNCCC2=C3C(=C(C=C2)O)NC(=O)CO3)C(=O)CCNCCC4=CC(=C(C=C4)Cl)Cl [AZ505] + Cc1nc(Nc2ncc(C(=O)Nc3c(C)cccc3Cl)s2)cc(N2CCN(CCO)CC2)n1 [Dasatinib] (partner 0.075 µM)
In short: as §1

## UMC-11
[1]; first compound 0.002 µM
  relative viability: 0.753
[1]; first compound 0.006325 µM
  relative viability: 0.727
[1]; first compound 0.02 µM
  relative viability: 0.606
[1]; first compound 0.06325 µM
  relative viability: 0.285
[1]; first compound 0.2 µM
  relative viability: 0.203
[2]; first compound 0.002 µM
  relative viability: 0.432
[2]; first compound 0.006325 µM
  relative viability: 0.537
[2]; first compound 0.02 µM
  relative viability: 0.394
[2]; first compound 0.06325 µM
  relative viability: 0.283
[2]; first compound 0.2 µM
  relative viability: 0.248
[3]; first compound 0.08 µM
  relative viability: 0.588
[3]; first compound 0.253 µM
  relative viability: 0.643
[3]; first compound 0.8 µM
  relative viability: 0.697
[3]; first compound 2.53 µM
  relative viability: 0.789
[3]; first compound 8 µM
  relative viability: 0.672
[4]; first compound 0.08 µM
  relative viability: 0.444
[4]; first compound 0.253 µM
  relative viability: 0.459
[4]; first compound 0.8 µM
  relative viability: 0.458
[4]; first compound 2.53 µM
  relative viability: 0.472
[4]; first compound 8 µM
  relative viability: 0.658
